Non-standard residues stand in square brackets, D forms with d. No end group written: not given here.
Key:
[1] = target: CXCR4 receptor on human Namalwa Burkitt's lymphoma cells (human) (UniProt P61073); experiment: flow cytometry on Namalwa cells; inhibition of 12G5-PE binding to CXCR4
[2] = test system: CXCR4-expressing Namalwa lymphoma cells; experiment: Namalwa lymphoma cell killing (trypan blue exclusion; apoptosis by DNA content); assay type: cell-based, Human; details: for cell viability / cell number (in words): 30 μM peptide, single peptides or domains in trans, FIG. 3A
Protocol: (a) Namalwa lymphoma cells were treated with 40 μM TATp53C′ or DV3-TATp53C′ peptide for 48 h. Cell viability was assessed by trypan blue exclusion. Data represents the mean and standard error from three independent experiments. […] Cells were treated with 5 μM peptide for 24 hours and analyzed for DNA content by flow cytometry. […] Cells were treated with indicated concentrations of cdk2 antagonists TAT-RxL or DV3-TAT-RxL peptides for 48 h. Cell viability was assessed by trypan blue exclusion. Data represents the mean and standard error from three independent experiments. (e) Namalwa lymphoma (CXCR4+) cells were treated with DV3-TATp53C′, TATp53C′ or DV3-TATp53MUT peptides for 24 hours. Apoptosis was determined by <2N DNA content as measured by flow cytometry and DNA staining.
Namalwa lymphoma cells were treated with 30 μM peptide for 48 h. Cell viability was assessed by trypan blue exclusion. Data represents the mean and standard error from three independent experiments. […] Cells were treated with 30 μM DV3-TATp53C′ or parental TATp53C′ peptide for 48 h in the presence or absence of a 200 μM excess of DV3 peptide. Cell viability was assessed by trypan blue exclusion. Data represents the mean and standard error from three independent experiments.
Cell Culture and Flow Cytometry. TA3/St, H1299 and 293T cells were maintained in DMEM plus 10% fetal bovine serum (FBS) and penicillin/streptomycin (P/S). Namalwa B cells (ATCC) were maintained in RPMI plus 10% FBS, P/S. All cells were maintained at 37° C. in 5% CO2. Short-term cell viability was assessed by counting Trypan blue excluding cells on a hemocytometer. For cell cycle analysis, peptide treated cells were analyzed by FACS with 10 μg/ml propidium iodide in 0.5% NP-40. DNA profiles were analyzed using a FACScan and CellQuest software (Becton Dickinson, San Jose, Calif.).

[3] = test system: TA3/St mammary carcinoma cells; experiment: Peptide treatment of CXCR4 non-expressing TA3/St cells (cell cycle by flow cytometry); assay type: cell-based; details: 5 μM peptide, 24 hours, DNA content by flow cytometry, FIG. 2B
Protocol: (§1) (a) Namalwa lymphoma cells were treated with 40 μM TATp53C′ or DV3-TATp53C′ peptide for 48 h. Cell viability was assessed by trypan blue exclusion. Data represents the mean and standard error from three independent experiments. (b) DV3-TATp53C′ and TATp53C′ peptides induce similar level of p53-dependent G1 cell cycle arrest in CXCR4 non-expressing TA3/St mammary carcinoma cells. Cells were treated with 5 μM peptide for 24 hours and analyzed for DNA content by flow cytometry. (c) DV3-TATp53C′, TATp53C′ and control DV3 peptide (30 μM) have no effect on CXCR4 non-expressing, p53-deficient H1299 lung adenocarcinoma cells. […] Cells were treated with indicated concentrations of cdk2 antagonists TAT-RxL or DV3-TAT-RxL peptides for 48 h. Cell viability was assessed by trypan blue exclusion. Data represents the mean and standard error from three independent experiments. […] Apoptosis was determined by <2N DNA content as measured by flow cytometry and DNA staining.
(§2) Cell Culture and Flow Cytometry. […] Short-term cell viability was assessed by counting Trypan blue excluding cells on a hemocytometer. For cell cycle analysis, peptide treated cells were analyzed by FACS with 10 μg/ml propidium iodide in 0.5% NP-40. DNA profiles were analyzed using a FACScan and CellQuest software (Becton Dickinson, San Jose, Calif.).

[4] = test system: H1299 lung adenocarcinoma cells; experiment: Peptide treatment of p53-deficient H1299 cells; assay type: cell-based, human; details: 30 μM peptide, FIG. 2C
Protocol: as §1, §2

[5] = test system: Namalwa lymphoma cells; experiment: Mouse model of metastatic peritoneal lymphoma (survival); assay type: in vivo; details: SCID mice, Namalwa cells i.p., 180 nmol peptide once a day for 12 days, FIG. 5
Protocol: FIG. 5. Targeted DV3-TATp53C′ peptide has enhanced ability to treat mouse model of aggressive, metastatic peritoneal lymphoma. Namalwa lymphoma cells were intraperitoneally injected into SCID mice and allowed to proliferate for 48 hours. Mice were then injected once a day for 12 days with vehicle control (n=10), or 180 nmol DV3-TATp53C′ peptide (n=11), non-targeted, parental TATp53C′ peptide (n=5), or control DV3-only peptide (n=5).

[6] = target: T1, CXCR4 receptor (Homo sapiens, UniProt P61073); experiment: CXCR4 binding assay (inhibition of 12G5-PE anti-CXCR4 antibody binding, flow cytometry); details: linked DV3 and TAT domains versus single domains, FIG. 1B
T1 construct: CXCR4 expressing Namalwa cells were washed 3 times with PBS/0.5% BSA and incubated on ice; endogenous in cells; host or cells: Namalwa B cells (human Burkitt's lymphoma, ATCC)
Protocol: (a) Sequences of peptides used in some embodiments. All peptides were synthesized using D-isomer residues, except for the TAT-RxL peptides. (b) Human Namalwa lymphoma cells that overexpress CXCR4 receptor were incubated with increasing concentrations of peptide, followed by fluorescent PE-conjugated anti-CXCR4 monoclonal antibody incubation, then analyzed for antibody binding to CXCR4 receptor (mean fluorescence) by flow cytometry. Graph plots relative fluorescence of cells with respect to cells treated with antibody only. Data represents the mean and standard error from three independent experiments.
CXCR4 binding assay. CXCR4 expressing Namalwa cells were washed 3 times with PBS/0.5% BSA and incubated on ice with phycoerythrin (PE)-labeled anti-CXCR4 monoclonal antibody (12G5-PE, R&D Systems, WI) and peptide. PE-labeled isotype matched antibody was used to control for non-specific cell surface binding. […]
DV3 Enhances the Affinity of TAT Peptides for CXCR4 Expressing Cells. […] Human Namalwa Burkitt's lymphoma cells overexpressing the CXCR4 receptor were treated with various peptides to block the CXCR4 receptor, then incubated with phycoerythrin (PE) conjugated anti-CXCR4 antibody and analyzed by flow cytometry.

Chain of CXCR4 receptor on human Namalwa Burkitt's lymphoma cells (human) (P61073 whole entry, the tested form may be a part): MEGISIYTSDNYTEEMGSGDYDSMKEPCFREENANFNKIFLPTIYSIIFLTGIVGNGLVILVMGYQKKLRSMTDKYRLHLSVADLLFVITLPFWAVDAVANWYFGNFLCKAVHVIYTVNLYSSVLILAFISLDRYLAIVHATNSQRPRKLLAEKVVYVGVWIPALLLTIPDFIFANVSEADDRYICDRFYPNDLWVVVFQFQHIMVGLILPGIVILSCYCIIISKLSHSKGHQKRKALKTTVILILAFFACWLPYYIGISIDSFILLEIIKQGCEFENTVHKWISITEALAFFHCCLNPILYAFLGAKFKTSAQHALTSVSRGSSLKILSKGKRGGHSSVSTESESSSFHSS
T1 sequence (P61073 whole entry, the tested form may be a part): as above

DV3-TATp53C′ peptide
IC50 [1]: < 10 nM

[dL]G[dA][dS][dW][dH][dR][dP][dD][dK]G[dR][dR][dR][dQ][dR][dR][dK][dK][dR]G[dK][dK][dH][dR][dS][dT][dS][dQ]G[dK][dK][dS][dK][dL][dH][dS][dS][dH][dA][dR][dS]G [DV3-TATp53C′]
reduction of cell number ([2]; 40 μM peptide, 48 h, trypan blue exclusion, FIG. 2A): > 80% | cell killing in presence of excess competing DV3 peptide ([2]; Namalwa cells, 30 μM peptide co-administered with 200 μM DV3 peptide, 48 h, FIG. 3B): reduced the potency of DV3-TATp53C′ peptide to levels similar to that of parental TATp53C′ peptide | cell viability / cell number (in words) ([2]; Namalwa cells, 48 h): decreased viability to a significantly greater extent than treatment with parental TAT-p53C′ peptide | cell number / cell killing (in words) ([2]; Namalwa cells, p53 peptides, FIG. 2A): enhanced cell killing | G1 cell cycle arrest [3]: induced a G1 arrest that was indistinguishable from treatment with parental TATp53C′ peptide | effect on p53-deficient H1299 cells [4]: little to no effect | median survival [5]: 41 days

CC(C)C[C@@H](N)C(=O)NCC(=O)N[C@H](C)C(=O)N[C@H](CO)C(=O)N[C@H](Cc1c[nH]c2ccccc12)C(=O)N[C@H](Cc1c[nH]cn1)C(=O)N[C@H](CCCNC(=N)N)C(=O)N1CCC[C@@H]1C(=O)N[C@H](CC(=O)O)C(=O)N[C@H](CCCCN)C(=O)NCC(=O)N[C@H](CCCNC(=N)N)C(=O)N[C@H](CCCNC(=N)N)C(=O)N[C@H](CCCNC(=N)N)C(=O)N[C@H](CCC(N)=O)C(=O)N[C@H](CCCNC(=N)N)C(=O)N[C@H](CCCNC(=N)N)C(=O)N[C@H](CCCCN)C(=O)N[C@H](CCCCN)C(=O)N[C@H](CCCNC(=N)N)C(=O)NCC(=O)O [DV3-TAT]
increased affinity for the CXCR4 receptor [6]: ~100 fold | cell viability / cell number (in words) ([2]; Namalwa cells, 48 h): minimal effects on cell number

DV3-TAT peptide
IC50 [1]: < 10 nM | fold increased affinity (against DV3 or TAT peptide alone) [1]: 100 fold

B1: DV3 peptide (CXCR4 receptor ligand) (peptide)
peptide: [dL]G[dA][dS][dW][dH][dR][dP][dD][dK]
IC50 [1]: 1000 nM

Reference: patent US20090098049A1, “Targeting transducible molecules to specific cell types” (The Regents of the University of California, priority 2004, published 2009)
